Patent US20140045205A1, “GLUTAMYL AMINOPEPTIDASE AS A MARKER OF RENAL DAMAGE” (UNIVERSIDAD DE GRANADA, priority 2010, published 2014)

How the values were obtained:
AlaAp = experiment: Urinary AlaAp activity in rats, fluorometric analysis with alanyl-β-naphthylamide; assay type: in vivo, Wistar rats; details: for AlaAp urinary activity change: rats, 6 weeks treatment (8% NaCl in diet; methimazole 300 mg/l drinking water), versus control group
Protocol: (§1) All treatments were maintained during 6 weeks. […] The GluAp, […] […] A blank was performed in duplicate for each sample.

AspAp = experiment: Urinary AspAp activity in rats, fluorometric analysis with aspartyl-β-naphthylamide; assay type: in vivo, Wistar rats
Protocol: as §1

CysAp = experiment: Urinary CysAp activity in rats, fluorometric analysis with cystinyl-β-naphthylamide; assay type: in vivo, Wistar rats
Protocol: as §1

[1] = Proteinuria in rats (Bio-Rad DC Protein Assay kit, Lowry's method)
Protocol: (§2) On the one hand, 42 male Wistar rats of 250 g in weight from the animal house of the University of Valladolid were distributed in 6 groups (n=7) with the following treatments: Control, Salt (8% NaCl in the diet), Hypothyroid (methimazole, 300 mg/l in drinking water), Hypothyroid+Salt, Hyperthyroid (daily s.c. injection of thyroxine (T4) 200 μg.kg^−1.day^−1), and Hyperthyroid+Salt.
(§3) At the end of the experiment, and after a 2-day period of adaptation to the metabolic cages, each animal was introduced in a metabolic cage during 24 hours. The dieresis was determined, and the urine was centrifuged for 10 min at 1,000 g, aliquoted and frozen at −80° C. until its use.
Proteinuria was determined using a commercial kit from Bio-Rad (DC Protein Assay kit) based on Lowry's method.

GluAp = experiment: Urinary GluAp activity in rats, fluorometric analysis with glutamyl-β-naphthylamide; details: for GluAp urinary activity change: rats, 6 weeks treatment (8% NaCl in diet; methimazole 300 mg/l drinking water; T4 200 μg/kg/day s.c.), versus control group
Protocol: as §2, §3
The GluAp, AlaAp, AspAp and CysAp activities were determined in duplicate by a fluorometric analysis using glutamyl-, alanyl-, aspartyl- and cystinyl-β-naphthylamide as substrates, respectively.
The substrates had been previously dissolved in 1 ml of DMSO and stored at -20° C.
The quantity of β-naphthylamine released as a result of the aminopeptidase activities was measured fluorometrically at an emission wavelength of 412 nm with excitation at 345 nm, taking a measurement of the fluorescence after 60 minutes, after stopping the reaction with 90 μl of 0.1 M acetate buffer.
A blank was performed in duplicate for each sample. […] The fluorescence difference between both measurements was quantified using a standard curve of β-naphthylamine dissolved in water at the concentrations of 12.5, 25, 50, 100 and 200 nmol/ml 90 μl of the incubation solution corresponding to each enzyme without the substrate were added to 20 μl of this solution, they were incubated during 60 minutes at 37° C., and 90 μl of 0.1 M acetate buffer were added. It was verified that the presence of the substrate in the incubation solutions in no way modified the fluorescence of the standard. All measurements were made in duplicate, and the linearity of the fluorescence obtained in the curve range was verified (0-200 nmol/ml).
Both for the determinations of the samples and for the blanks, reaction blanks were performed containing 20 μl of distilled water, 90 μl of incubation solution with or without substrate, respectively, and 90 μl of sodium acetate.
The specific activity of each aminopeptidase was expressed as nanomoles of hydrolyzed substrate per minute and per mg of creatinine. The linearity of the fluorescence obtained was verified with respect to hydrolysis time and creatinine content in a same sample.

[2] = rats, 8% NaCl in diet, 6 weeks
Protocol: as §2

[3] = methimazole 300 mg/l given to rats treated with 8% salt (Hypothyroid+salt), 6 weeks, in comparison with rats treated with salt
[4] = rats, 6 weeks treatment (methimazole 300 mg/l drinking water), versus control group
[5] = rats, 6 weeks treatment (8% NaCl in diet; methimazole 300 mg/l drinking water; T4 200 μg/kg/day s.c.), versus control group
[6] = 8% salt given simultaneously to hyperthyroid (T4) rats, 6 weeks, over the value of the hyperthyroid rats

| AspAp urinary activity change (AspAp; [4]) | CysAp urinary activity change (CysAp; [4]) | SMILES | AlaAp activity change (AlaAp; [3]) | AlaAp urinary activity change (AlaAp) | proteinuria change [1, 5] | GluAp activity change (GluAp; [3]) | GluAp urinary activity change (GluAp) | rise in AlaAp activity (AlaAp; [6]) | rise in AspAp activity (AspAp; [6]) | rise in CysAp activity (CysAp; [6]) | plasma creatinine change [2] | proteinuria change ([1]; 8% salt given simultaneously to hyperthyroid (T4) rats, 6 weeks) | rise in GluAp activity (GluAp; [6]) |
| --- | --- | --- | --- | --- | --- | --- | --- | --- | --- | --- | --- | --- | --- |
| no modification | no modification | Cn1cc[nH]c1=S [methimazole, reference compound] | decrease | significantly decreased | no modification | decrease | no modification |  |  |  |  |  |  |
|  |  | [Cl-].[Na+] [Salt, NaCl] |  | significant increase | not accompanied with proteinuria |  | significant increase | more than tenfold | around fivefold | around fivefold | not accompanied | great increase | more than tenfold |
